Data from PMC9598469, “Analysis of Antioxidant Constituents from Ilex rotunda and Evaluation of Their Blood–Brain Barrier Permeability” (Antioxidants, 2022).
Like-named read-outs stand apart in the source and are kept apart here.

How the values were obtained:
[1] = DPPH method on ELISA (96-well microplate) for isolated compounds; type: biochemical; conditions: compounds 2.5 to 40 μM, 30 min, 517 nm; read-out: EC50 Values (μM), DPPH radical
Description: The radical scavenging effect of 2,2-diphenyl-1-picrylhydrazyl (DPPH; Thermo Fisher Scientific, Ward Hill, MA, USA) was measured using our previous method. Briefly, 0.1 mL of each sample solution (dissolved in EtOH) was mixed with 0.1 mL of 0.2 mM DPPH and allowed to stand at RT for 30 min under shade. The absorbance at 517 nm was measured using a microplate spectrophotometer (Epoch, Biotek Instruments, Inc., Winooski, VT, USA). Ascorbic acid (100 μg/mL) (Sigma–Aldrich, Co., St. Louis, MO, USA) was used as a positive control. The percentage of DPPH reduction between the treated sample and negative control well was calculated with the following formula: %EC = (A control − A sample) * 100/(A control), where A sample was the absorbance of the sample and A control was the absorbance of untreated sample. Results are indicated as EC50, which correspond to the sample concentration (μg/mL) required to inhibition by 50% of the initial DPPH radical scavenging activity under the given experimental conditions.
(§1) An amount of 100 μL of the I. rotunda extract (1.3 mg/mL) dissolved in methanol and 100 μL of the DPPH solution (1.2 mg/mL in methanol) were mixed and incubated for 30 min at 37 °C, protected from light. After that, the mixture was filtered through a 0.22 μm filter for HPLC analysis. The control sample was prepared by mixing 100 μL methanol with 100 μL of the extract. Both mixtures were analyzed using the same established analytical methods. The outflow was monitored at 254 and 326 nm wavelength. […] The ELISA assay was performed by following procedure. A 100 μL of DPPH solution (0.2 mM) was added to 100 μL of the sample on a 96-well plate, mixed for 5 s, and reacted for 30 min under shade. The absorbance was measured at 517 nm using a microplate spectrophotometer (Epoch, Biotek Instruments, Inc., Winooski, VT, USA). […] Ascorbic acid (100 μg/mL) (Sigma–Aldrich, Co., St. Louis, MO, USA) was used as the positive control.

[2] = HPLC-DPPH screening: peak area reduction in I. rotunda twig extract; type: biochemical; conditions: between DPPH treated and untreated samples in the I. rotunda extract, untreated = 100%
Description: as §1

[3] = Parallel artificial membrane permeability assay for the blood–brain barrier (PAMPA-BBB); type: in vitro ADME; conditions: for Cross BBB Potential: single compounds at 10 mM, classification based on Könczöl et al.; for Papp at 4 h, 1 mM: single compounds at concentration of 10 mM (stock), read-out: BBB Permeability log Pe (converted)
Description: The PAMPA-BBB experiment was carried out according to the study by Könczöl et al.. A slightly modified version of the PAMPA-BBB was used to assess effective permeability (Pe, cm/s) of compounds of I. rotunda. Briefly, 20 μL of stock solution of I. rotunda extract (10 mg/mL in MeOH) or test compound (10 mM in MeOH) was mixed with 180 μL of phosphate buffered saline (PBS, pH 7.4, 10 mM) to obtain the starting donor solution. Subsequently, the filter membrane of the donor (top) plate (96-well polycarbonate-based filter plate, Multiscreen-IP, MAIPTR10, pore size 0.45 μm, Milipore) was coated with 5 μL of porcine polar brain lipid extract (PBLE) solution (16.0 mg PBLE + 8.0 mg cholesterol dissolved in 600.0 μL n-dodecane). Then, 150.0 μL of the filtrate was placed on the membrane. The bottom (acceptor) plate (96-well microtiter plate, Multiscreen®, MATRNPS50, Milipore) was filled with 300.0 μL buffer solution (PBS, pH 7.4, 10 mM). The donor plate was carefully located on the acceptor plate to form a “sandwich”. It was incubated at 37 °C for 4 h without direct right exposure. After incubation, PAMPA plates were separated. Concentrations of identified compounds of I. rotunda in the starting donor solution and in acceptor and donor wells were determined in triplicate based on chromatographic peak areas derived from the same established analytical methods. […] Pe=−ln1−CA(t)/Cequilibrium /A×1/VD1/VA×t where Pe is permeability in cm s^−1. A = effective filter area = f × 0.3 cm^2; VD = donor well volume = 150 μL; VA = acceptor well volume = 300 μL; t = incubation time (s) = 14,400; CA(t) = compound concentration in the acceptor well at time t; and CD(t) = compound concentration in the donor well at time t. Cequilibrium is calculated as follows: Cequilibrium=CD(t)×VD+CA(t)×VA/VD+VA

[4] = parameters: method as in PMID 23565574; conditions: cited from earlier work
[5] = I. rotunda extract test, t = 14,400 s

EC50 [1] [µM]	SMILES	Reduction of the Peak Area (%) [2] [%]	Cross BBB Potential [3]	also measured
22.6 ± 0.77	O=C1O[C@H]([C@@H](O)CO)C(O)=C1O [Ascorbic acid, reference compound]	–	–	–
13.8 ± 0.24	O=C(/C=C/c1ccc(O)c(O)c1)O[C@@H]1[C@H](O)C[C@@](O)(C(=O)O)C[C@H]1OC(=O)/C=C/c1ccc(O)c(O)c1 [Compound 7, 4,5-Dicaffeoylquinic acid]	83.67	+ (log Pe > −6.0)	Reduction of the Peak Area (%) ([2]; listed as 4,5-dicaffeoylquinic acid (7)): 83.67 ± 0.19%; Concentration of acceptor solution CA(t) [3, 5]: 6.62 µg/mL; Concentration of donor solution CD(t) [3, 5]: 287.86 µg/mL; BBB permeability (in words) ([3]; PAMPA-BBB, extract and 10 mM tests): moderate BBB permeability; Papp at 4 h, 1 mg/mL extract ([3]; PAMPA, compound within I. rotunda extract (10 mg/mL stock), pH 7.4, 37 °C, 4 h, read-out: BBB permeability log Pe (converted)): 1.58 ×10⁻⁶ cm/s; Papp at 4 h, 1 mM ([3]; PAMPA, pH 7.4, 37 °C, 4 h): 1.41 ×10⁻⁶ cm/s

The next lines start with the molecule.

SMILES	EC50 [1] [µM]	Reduction of the Peak Area (%) [2] [%]	Cross BBB Potential [3]	also measured
COc1cc(/C=C/CO)cc(OC)c1O[C@@H]1O[C@H](CO)[C@@H](O)[C@H](O)[C@H]1O [Compound 1, Syringin]	–	6.98 ± 0.44	- (not detected in acceptor or log Pe < −6.0)	–
O=C(/C=C/c1ccc(O)c(O)c1)O[C@@H]1C[C@](O)(C(=O)O)C[C@@H](O)[C@H]1O [Compound 2, Chlorogenic acid]	–	–	- (not detected in acceptor or log Pe < −6.0)	BBB permeability (in words) [4]: poor permeability
C[C@@H]1O[C@@H](OC[C@H]2O[C@@H](Oc3c(-c4ccc(O)c(O)c4)oc4cc(O)cc(O)c4c3=O)[C@H](O)[C@@H](O)[C@@H]2O)[C@H](O)[C@H](O)[C@H]1O [Compound 3, Rutin]	–	21.45 ± 0.90	- (not detected in acceptor or log Pe < −6.0)	BBB permeability (in words) [4]: poor permeability
CC(=CCOC1OC(CO)C(O)C(O)C1O)COC(=O)C=Cc1ccc(O)c(O)c1 (stereo not drawn) [Compound 4, Rotundarpenoside B]	–	18.99 ± 0.90	- (not detected in acceptor or log Pe < −6.0)	–
O=C(C=Cc1ccc(O)c(O)c1)OC1CC(O)(C(=O)O)CC(O)C1OC(=O)C=Cc1ccc(O)c(O)c1 (stereo not drawn) [Compound 5, 3,4-Dicaffeoylquinic acid]	–	45.24 ± 0.67	- (not detected in acceptor or log Pe < −6.0)	–
O=C(/C=C/c1ccc(O)c(O)c1)O[C@@H]1C[C@](O)(C(=O)O)C[C@@H](OC(=O)/C=C/c2ccc(O)c(O)c2)[C@H]1O [Compound 6, 3,5-Dicaffeoylquinic acid]	10.88 ± 0.04	58.88	- (not detected in acceptor or log Pe < −6.0)	Reduction of the Peak Area (%) ([2]; listed as 3,5-dicaffeoylquinic acid (6)): 58.88 ± 0.44%
O=C(/C=C/c1ccc(O)c(O)c1)O[C@@H]1C[C@](O)(C(=O)O)C[C@@H](OC(=O)/C=C/c2ccc(O)c(O)c2)[C@H]1OC(=O)/C=C/c1ccc(O)c(O)c1 [Compound 8, 3,4,5-Tricaffeoylquinic acid]	10.9 ± 0.14	67.25	- (not detected in acceptor or log Pe < −6.0)	Reduction of the Peak Area (%) ([2]; listed as 3,4,5-tricaffeoylquinic acid (8)): 67.25 ± 1.00%
O=C(O)/C=C/c1ccc(O)c(O)c1 [caffeic acid, reference compound]	–	–	- (not detected in acceptor or log Pe < −6.0)	Papp at 4 h, 1 mM ([3]; PAMPA, pH 7.4, 37 °C, 4 h): 0.000832 ×10⁻⁶ cm/s
O=c1ccc2ccccc2o1 [coumarin, reference compound]	–	–	++ (log Pe > −5.0)	Papp at 4 h, 1 mM ([3]; PAMPA, pH 7.4, 37 °C, 4 h): 28.8 ×10⁻⁶ cm/s
